In US20260263482A1, “COMPOSITION AND METHOD FOR INDUCING LUTEOLYSIS” (WELFARE CONCEPTS LIMITED, priority 2023, published 2026):
Like-named read-outs stand apart in the source and are kept apart here.

What was measured:
[1] = Titration of cloprostenol sodium with calcium or zinc salts, cloprostenol in supernatant by HPLC; format: physicochemical
Procedure: Water-insoluble salts of cloprostenol were investigated as a means of prolonging release of cloprostenol after administration. Solutions of cloprostenol sodium were titrated with calcium chloride, zinc chloride or zinc acetate solutions. The resulting mixtures were vortexed, left to stand overnight then observed for precipitation possibly due to formation of an insoluble salt. Samples with a visible precipitate were centrifuged at 15000 rpm for 5 min and the supernatant was then removed for analysis of cloprostenol by validated HPLC.

[2] = physchem; format: physicochemical; conditions: for solubility: water, water solubility
Procedure: Water-in-oil (w/o) emulsions of cloprostenol sodium were investigated for use as sustained release compositions of cloprostenol. […] In aqueous solution cloprostenol sodium micellises at concentrations around 5-10 mg/ml. The minimum quantity of water to dissolve a 3 mg dose of cloprostenol (as the sodium salt) is around 0.1 ml. Accordingly, a target volume of 2 ml of water-in-oil emulsion requires a minimum proportion of around 5% water to incorporate a 3 mg dose of cloprostenol.

[3] = literature; cited from earlier work
[4] = Chemical stability of cloprostenol in ethanol and Transcutol; format: physicochemical; conditions: 40° C., 4 days, HPLC
Procedure: The chemical stability of cloprostenol was tested in ethanol and Transcutol. A cloprostenol solution (1 mg/ml) was prepared in each solvent and stored in at 40° C. for 4 days. The solutions were then removed and injected into HPLC for cloprostenol quantification and the chromatogram inspected for the formation of new (degradation) peaks. Cloprostenol in solution in ethanol and Transcutol at 40° C. was stable for the 4 days tested. […] There were no degradation peaks in the chromatograms.

[5] = Authors' study / animal trial: half-life from terminal slope of plasma concentration versus time profile; format: in vivo; conditions: cattle, intramuscular
Procedure: Literature has reported a half-life for cloprostenol of around 90 minutes, with a maximum concentration reached at around 10 to 20 minutes after administration.
The inventors have also used various models to describe the absorption kinetics of cloprostenol. The most recent model was to describe the release from SAIB formulations as occurring as a burst of some percentage of the dose followed by a rate of release proportional to the square root of time. In an animal trial, the inventors calculated the terminal slope of the plasma concentration versus time profile. If absorption is very rapid—ie. as from standard cloprostenol injection, Ovuprost™, this terminal slope is related to the elimination half-life of the cloprostenol. The inventors found this half-life to be 1 hour. The literature reports the elimination half-life of cloprostenol to be 1.5-3 hours. If absorption is slow, the terminal slope relates to the absorption rate of the cloprostenol from the injection.
In cattle, the conventional intramuscular injected dose of natural PGF2α is 25 mg whereas the intramuscular injected dose of cloprostenol in 0.5 mg. PGF2α has a half-life of about 8-10 minutes whereas the cloprostenol half-life is from around 1 hour as determined by the authors' study and reported elsewhere as 1.5-3 hours.

Compound: O=C([O-])CCCC=CCC1C(O)CC(O)C1C=CC(O)COc1cccc(Cl)c1.O=C([O-])CCCC=CCC1C(O)CC(O)C1C=CC(O)COc1cccc(Cl)c1.[Ca+2] (stereo not drawn) [calcium cloprostenol]
- solubility of the calcium salt ([1]; titration with calcium chloride, mixtures remained apparently clear): good solubility

Compound: O=C(O)CCC/C=C\CC1C(O)CC(O)C1/C=C/C(O)COc1cccc(Cl)c1 (stereo not drawn) [cloprostenol sodium]
- concentration at which it micellises in aqueous solution [2]: 5000 to 10000 µg/mL
- solubility [2]: > 10 mg/mL
- solubility ([2]; estimated): ~35 mg/mL

Compound: O=C(O)CCC/C=C\CC1C(O)CC(O)C1/C=C/C(O)COc1cccc(Cl)c1 (stereo not drawn) [cloprostenol]
- cloprostenol still contained in supernatant at best yield of precipitate ([1]; zinc acetate): around 50%
- cloprostenol still contained in supernatant at best yield of precipitate ([1]; zinc chloride as counter cation): around 74%
- elimination half-life of cloprostenol [3]: 1.5 to 3 h
- half-life for cloprostenol [3]: around 90 minutes
- measured drug content ([4]; 1 mg/ml in Transcutol): 102%
- measured drug content ([4]; 1 mg/ml in ethanol): 101%
- half-life ([5]; Holstein, 0.5 mg, very rapid absorption, standard cloprostenol injection, read-out: half-life (terminal slope, elimination) (converted)): ~1 h
- half-life ([5]; 0.5 mg cloprostenol as the sodium salt in a fast-release aqueous composition, read-out: estimated half-life of cloprostenol in plasma): 0.25 to 1 h
